The values below come from patent US20130231276A1, “Combination Of An Aminoacyl-tRNA Synthetase Inhibitor With A Further Antibacterial Agent For Attenuating Multiple Drug Resistance” (BROWN UNIVERSITY, priority 2010, published 2013).

Structures are written as SMILES. Converted amounts (≈) assume the structure as drawn. Read-outs that look alike come from different tables or passages of the source. Where only a bound is given, the exact number is not on record here.

For assay [1], the system named is Streptomyces coelicolor B728. The assay can be described thus: MIC on Difco Nutrient Agar with sub-lethal indolmycin, strain B728 (trpRS2 null). The class given is cell-based. The procedure:
(§1) Changes in the susceptibility of S. coelicolor to three clinically used antibacterial drugs (chloramphenicol, erythromycin, and vancomycin) grown in the presence of indolmycin were assessed. The effects of antibiotic combinations were assessed in wild-type S. coelicolor, which has an auxiliary, indolmycin-resistant isoform of tryptophanyl-tRNA synthetase (TrpRS1). We also examined these combinations in three other indolmycin-resistant strains of S. coelicolor—a trpRS2 null strain (B728) (8) and two strains lacking trpRS1 with resistance conferring point mutations in trpRS2 (B734 with TrpRS2 H48N and B735 with TrpRS2 H48Q) (9). These strains were selected because the strong antibacterial activity of indolmycin precluded testing of this hypothesis in the indolmycin-sensitive trpRS1 null strain of S. coelicolor. The effects were measured in terms of changes in the chloramphenicol, erythromycin, and vancomycin MICs of the four strains over a range of sub-lethal indolmycin concentrations.
(§2) Streptomyces coelicolor strains were grown on DIFCO Nutrient Agar supplemented with indolmycin (0-100 μg/mL) and one of the following antibacterial agents: chloramphenicol (10-80 μg /mL), erythromycin (1-110 μg/mL), and vancomycin (30-140 μg/mL). The strains were grown on the media at 30° C. for 48 hours, after which point growth was assessed visually.
(§3) A 50 mg/mL (active enantiomer) stock solution of indolmycin was prepared by dissolving the indolmycin in DMSO. The concentrations of each stock solution reflect the actual concentration of the pharmacologically active substance. Aliquots of the stock solutions were added directly to molten, sterile DIFCO Nutrient Agar prior to solidification. Streptomyces coelicolor spores were directly spread onto the surface of each DNA plate and the plates were incubated at 30° C. for about 48 hours. Growth was assessed visually after the incubation period. Minimal inhibitory concentrations (MICs) reflect the drug concentrations at which no Streptomyces coelicolor growth was observed.
(§4) All Streptomyces strains were grown on Difco Nutrient Agar at 30° C. The MICs were assessed after 48 hours.

In assay [2] the test system is Streptomyces coelicolor M600. The assay can be described thus: MIC on Difco Nutrient Agar with sub-lethal indolmycin, strain M600 (wild-type). The note with it: for MIC: Streptomyces coelicolor, M600, 48 h, 30° C., 48 hours. In kind it is cell-based. How it is done:
as §1, §2, §3, §4

Assay [3] relates to S. coelicolor. The assay can be described thus: Indolmycin MIC against S. coelicolor. The class given is cell-based, Streptomyces coelicolor. The note with it: indolmycin alone.
In assay [4] the test system is Helicobacter pylori. The following applies: cited from earlier work.
Assay [5] relates to methicillin-resistant Staphylococcus aureus. The following applies: cited from earlier work.
Assay [6] concerns the target tryptophanyl-tRNA synthetase (TrpRS1) (Streptomyces coelicolor, UniProt Q8CJX0). The following applies: TrpRS1 of S. coelicolor, reference (19), cited from earlier work.
Setting [7] is: Streptomyces coelicolor, B728, 48 h, strain B728, 0 μg/ml Indolmycin, 30° C., 48 hours.
The mark [8] stands for this setting: Streptomyces coelicolor, B728, 48 h, strain B728, 10 μg/ml Indolmycin, 30° C., 48 hours.
The mark [9] stands for this setting: Streptomyces coelicolor, B728, 48 h, strain B728, 25 μg/ml Indolmycin, 30° C., 48 hours.
The mark [10] stands for this setting: Streptomyces coelicolor, B728, 48 h, strain B728, 50 μg/ml Indolmycin, 30° C., 48 hours.
Setting [11] is: Streptomyces coelicolor, B728, 48 h, strain B728, 75 μg/ml Indolmycin, 30° C., 48 hours.
[12] abbreviates: Streptomyces coelicolor, B728, 48 h, strain B728, 100 μg/ml Indolmycin, 30° C., 48 hours.
Setting [13] is: strain M600, 0 μg/ml Indolmycin, read-out: MIC.
[14] abbreviates: strain M600, 10 μg/ml Indolmycin, read-out: MIC.
The mark [15] stands for this setting: strain M600, 25 μg/ml Indolmycin, read-out: MIC.
Where [16] appears, read: strain M600, 50 μg/ml Indolmycin, read-out: MIC.
Where [17] appears, read: strain M600, 75 μg/ml Indolmycin, read-out: MIC.
Where [18] appears, read: strain M600, 100 μg/ml Indolmycin, read-out: MIC.

Chain of tryptophanyl-tRNA synthetase (TrpRS1) (Q8CJX0 whole entry): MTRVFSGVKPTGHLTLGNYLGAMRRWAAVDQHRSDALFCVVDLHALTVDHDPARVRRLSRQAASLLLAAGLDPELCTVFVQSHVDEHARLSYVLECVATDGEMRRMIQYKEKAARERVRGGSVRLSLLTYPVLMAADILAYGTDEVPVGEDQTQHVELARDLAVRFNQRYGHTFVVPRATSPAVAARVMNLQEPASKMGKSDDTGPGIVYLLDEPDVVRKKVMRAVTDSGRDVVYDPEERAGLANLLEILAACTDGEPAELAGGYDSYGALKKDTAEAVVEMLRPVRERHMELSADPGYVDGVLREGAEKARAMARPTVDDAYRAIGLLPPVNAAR

In the case of `CC[C@H]1OC(=O)[C@H](C)[C@@H](O[C@H]2C[C@@](C)(OC)[C@@H](O)[C@H](C)O2)[C@H](C)[C@@H](O[C@@H]2O[C@H](C)C[C@H](N(C)C)[C@H]2O)[C@](C)(O)C[C@@H](C)C(=O)[C@H](C)[C@@H](O)[C@]1(C)O` [Erythromycin, erythromycin], the MIC (in general, the lowest concentration found to suppress growth) was 70 µg/mL in assay [1] (setting [7]); 50 µg/mL in assay [1] (setting [8]); 30 µg/mL in assay [1] (setting [9]); 20 µg/mL in assay [1] (setting [10]); 10 µg/mL in assay [1] (setting [11]); 5 µg/mL in assay [1] (setting [12]). For the same compound, the MIC came out at 110 µg/mL in assay [2] (setting [13]); 40 µg/mL in assay [2] (setting [14]); 30 µg/mL in assay [2] (setting [15]); 15 µg/mL in assay [2] (setting [16]); 10 µg/mL in assay [2] (setting [17]); 5 µg/mL in assay [2] (setting [18]).
Regarding `CN=C1NC(=O)[C@H]([C@H](C)c2c[nH]c3ccccc23)O1` [indolmycin], the values for the MIC in assay [3], in assay [4] and in assay [5] were greater than 500 µg/mL, 0.016 µg/mL (≈ 0.0622 µM) and 0.5 µg/mL (≈ 1.94 µM), respectively. The Ki (commonly a measure of affinity in units of concentration, obtained from inhibition or displacement) in assay [6] is 900 nM; in assay [6] (listed as Indolmycin) it was roughly 900 nM.
As to `O=C(N[C@H](CO)[C@H](O)c1ccc([N+](=O)[O-])cc1)C(Cl)Cl` [Chloramphenicol, chloramphenicol], the MIC in assay [1] (setting [7]) turned out to be 60 µg/mL; in assay [1] (setting [8]), 40 µg/mL; in assay [1] (setting [9]), 30 µg/mL; in assay [1] (setting [10]), 30 µg/mL; in assay [1] (setting [11]) it was 20 µg/mL; in assay [1] (setting [12]) it was 20 µg/mL. Besides, the MIC in assay [2] (setting [13]) came out at 80 µg/mL; in assay [2] (setting [14]), 35 µg/mL; in assay [2] (setting [15]), 25 µg/mL; in assay [2] (setting [16]), 20 µg/mL; in assay [2] (setting [17]), 15 µg/mL; in assay [2] (setting [18]), 10 µg/mL. The MIC was reduced in assay [2] (wild-type S. coelicolor, media supplemented with indolmycin) is given as 10 fold.
Turning to `CN[C@H](CC(C)C)C(=O)N[C@H]1C(=O)N[C@@H](CC(N)=O)C(=O)N[C@H]2C(=O)N[C@H]3C(=O)N[C@H](C(=O)N[C@H](C(=O)O)c4cc(O)cc(O)c4-c4cc3ccc4O)[C@H](O)c3ccc(c(Cl)c3)Oc3cc2cc(c3O[C@@H]2O[C@H](CO)[C@@H](O)[C@H](O)[C@H]2O[C@H]2C[C@](C)(N)[C@H](O)[C@H](C)O2)Oc2ccc(cc2Cl)[C@H]1O` [Vancomycin, vancomycin], the MIC in assay [1] (Streptomyces coelicolor, B728, 48 h) is 130 µg/mL; in assay [1] (strain B728, 10 μg/ml Indolmycin, 30° C., 48 hours), 130 µg/mL; in assay [1] (strain B728, 25 μg/ml Indolmycin, 30° C., 48 hours), 130 µg/mL; in assay [1] (strain B728, 50 μg/ml Indolmycin, 30° C., 48 hours) it was 130 µg/mL; in assay [1] (strain B728, 75 μg/ml Indolmycin, 30° C., 48 hours), 130 µg/mL; in assay [1] (strain B728, 100 μg/ml Indolmycin, 30° C., 48 hours), 130 µg/mL. The MIC in assay [2] (strain M600, 0 μg/ml Indolmycin) was 110 µg/mL; in assay [2] (strain M600, 10 μg/ml Indolmycin) it was 110 µg/mL; in assay [2] (strain M600, 25 μg/ml Indolmycin), 110 µg/mL; in assay [2] (strain M600, 50 μg/ml Indolmycin) it was 110 µg/mL; in assay [2] (strain M600, 75 μg/ml Indolmycin), 110 µg/mL; in assay [2] (strain M600, 100 μg/ml Indolmycin), 70 µg/mL. Besides, in assay [2] (strain M600, about 100 μg/mL indolmycin), the “more sensitive in the presence of indolmycin” value turned out to be 1.6 times.
